Laboratory results from patent publication US10781211B2, “Spirocycle compounds and methods of making and using same” (Lundbeck La Jolla Research Center, Inc., priority 2016, dated 2020).

Experiments:
[1] = target: FAAH (Mus musculus (Mouse), UniProt O08914); assay: Mouse brain proteomes from inhibitor treated mice (oral gavage, sacrifice 4 h after administration, ABPP analysis), FAAH; assay type: in vivo; settings: 5 mg/kg oral gavage
Protocol: (§1) Preparation of Mouse Brain Proteomes from Inhibitor Treated Mice.
(§2) Inhibitors were administered to wild-type C57Bl/6J by oral gavage in a vehicle, e.g. PEG400/Ethanol/PBS (7/2/1). Each animal was sacrificed 4 h following administration and brain proteomes were prepared and analyzed according to previously established methods (See Niphakis, M. J., et al. (2011) ACS Chem. Neurosci. and Long, J. Z., et al. Nat. Chem. Biol. 5:37-44). Data from this assay is shown in Table 2 (% inhibition at 5 mg/kg).

[2] = target: ABHD6 (Mus musculus (Mouse), UniProt Q8R2Y0); assay: Mouse brain proteomes from inhibitor treated mice (oral gavage, sacrifice 4 h after administration, ABPP analysis), ABHD6; assay type: in vivo; settings: 5 mg/kg oral gavage
Protocol: as §1, §2

Chain of FAAH (O08914 whole entry): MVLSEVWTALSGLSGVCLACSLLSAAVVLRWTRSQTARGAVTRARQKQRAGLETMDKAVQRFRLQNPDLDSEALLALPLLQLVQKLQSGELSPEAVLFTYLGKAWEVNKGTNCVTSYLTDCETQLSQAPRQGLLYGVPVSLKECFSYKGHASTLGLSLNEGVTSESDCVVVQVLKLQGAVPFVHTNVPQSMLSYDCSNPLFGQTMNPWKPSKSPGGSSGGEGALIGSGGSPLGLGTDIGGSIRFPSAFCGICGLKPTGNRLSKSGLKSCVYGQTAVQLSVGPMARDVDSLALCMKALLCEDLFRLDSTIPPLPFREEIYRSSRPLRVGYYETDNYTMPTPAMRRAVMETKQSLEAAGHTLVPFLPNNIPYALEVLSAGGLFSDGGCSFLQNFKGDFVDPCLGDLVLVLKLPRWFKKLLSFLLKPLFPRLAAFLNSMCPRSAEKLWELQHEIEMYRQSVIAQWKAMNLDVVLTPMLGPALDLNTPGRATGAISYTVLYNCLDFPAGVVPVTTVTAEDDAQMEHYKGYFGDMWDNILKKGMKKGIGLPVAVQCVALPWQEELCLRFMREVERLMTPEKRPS
Chain of ABHD6 (Q8R2Y0 whole entry): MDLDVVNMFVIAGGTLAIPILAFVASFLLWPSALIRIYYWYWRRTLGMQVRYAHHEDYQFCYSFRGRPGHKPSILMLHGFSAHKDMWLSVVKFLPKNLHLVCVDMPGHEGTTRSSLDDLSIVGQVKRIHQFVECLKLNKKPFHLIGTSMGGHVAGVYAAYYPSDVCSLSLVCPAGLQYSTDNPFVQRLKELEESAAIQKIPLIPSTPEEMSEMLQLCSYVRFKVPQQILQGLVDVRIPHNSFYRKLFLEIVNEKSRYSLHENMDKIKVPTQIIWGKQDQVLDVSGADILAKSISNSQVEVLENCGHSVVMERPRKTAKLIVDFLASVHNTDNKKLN

O=C(OC(C(F)(F)F)C(F)(F)F)N1CCC2(CCN(Cc3ccc(Cl)cc3N3CCCC3)C2)CC1 [Example 17, 1,1,1,3,3,3-Hexafluoropropan-2-yl 2-(4-chloro-2-(pyrrolidin-1-yl)benzyl)-2,8-diazaspiro[4.5]decane-8-carboxylate]
FAAH % Inh 5 mg/kg (mouse) [1]: # (# is < 25%) | ABHD6 % Inh 5 mg/kg (mouse) [2]: # (# is < 25%)

O=C(OC(C(F)(F)F)C(F)(F)F)N1CCC2(CCCN2Cc2ccc(Cl)cc2N2CCN(CCF)CC2)CC1 [Example 19, 1,1,1,3,3,3-Hexafluoropropan-2-yl 1-(4-chloro-2-(4-(2-fluoroethyl)piperazin-1-yl)benzyl)-1,8-diazaspiro[4.5]decane-8-carboxylate]
FAAH % Inh 5 mg/kg (mouse) [1]: # (# is < 25%) | ABHD6 % Inh 5 mg/kg (mouse) [2]: # (# is < 25%)

O=C(OC(C(F)(F)F)C(F)(F)F)N1CCC2(CCCN2Cc2ccc(C(F)(F)F)cc2N2CCN(CCF)CC2)CC1 [Example 20, 1,1,1,3,3,3-Hexafluoropropan-2-yl 1-(2-(4-(2-fluoroethyl)piperazin-1-yl)-4-(trifluoromethyl)benzyl)-1,8-diazaspiro[4.5]decane-8-carboxylate]
FAAH % Inh 5 mg/kg (mouse) [1]: # (# is < 25%) | ABHD6 % Inh 5 mg/kg (mouse) [2]: # (# is < 25%)

O=C(OC(C(F)(F)F)C(F)(F)F)N1CCC2(CCN(Cc3ccc(C(F)(F)F)cc3N3CCCCC3)C2)CC1 [Example 23, 1,1,1,3,3,3-Hexafluoropropan-2-yl 2-(2-(piperidin-1-yl)-4-(trifluoromethyl)benzyl)-2,8-diazaspiro[4.5]decane-8-carboxylate]
FAAH % Inh 5 mg/kg (mouse) [1]: # (# is < 25%) | ABHD6 % Inh 5 mg/kg (mouse) [2]: # (# is < 25%)

O=C(OC(C(F)(F)F)C(F)(F)F)N1CCC2(CCN(Cc3ccc(Cl)cc3N3CC4COCC4C3)C2)CC1 (centres unmarked) [Example 25, 1,1,1,3,3,3-Hexafluoropropan-2-yl 2-(4-chloro-2-(tetrahydro-1H-furo[3,4-c]pyrrol-5(3H)-yl)benzyl)-2,8-diazaspiro[4.5]decane-8-carboxylate]
FAAH % Inh 5 mg/kg (mouse) [1]: # (# is < 25%) | ABHD6 % Inh 5 mg/kg (mouse) [2]: # (# is < 25%)

O=C(OC(C(F)(F)F)C(F)(F)F)N1CCC2(CCN(Cc3ccc(C(F)(F)F)cc3N3CC4COCC4C3)C2)CC1 (centres unmarked) [Example 26, 1,1,1,3,3,3-Hexafluoropropan-2-yl 2-(2-(tetrahydro-1H-furo[3,4-c]pyrrol-5(3H)-yl)-4-(trifluoromethyl)benzyl)-2,8-diazaspiro[4.5]decane-8-carboxylate]
FAAH % Inh 5 mg/kg (mouse) [1]: # (# is < 25%) | ABHD6 % Inh 5 mg/kg (mouse) [2]: # (# is < 25%)

CS(=O)(=O)N1CCN(c2cc(CN3CCCC34CCN(C(=O)OC(C(F)(F)F)C(F)(F)F)CC4)cc(C(F)(F)F)c2)CC1 [Example 43, 1,1,1,3,3,3-Hexafluoropropan-2-yl 1-(3-(4-(methylsulfonyl)piperazin-1-yl)-5-(trifluoromethyl)benzyl)-1,8-diazaspiro[4.5]decane-8-carboxylate]
FAAH % Inh 5 mg/kg (mouse) [1]: # (# is < 25%) | ABHD6 % Inh 5 mg/kg (mouse) [2]: # (# is < 25%)

O=C(OC(C(F)(F)F)C(F)(F)F)N1CCC2(CCCN2Cc2cc(N3CCC(F)CC3)cc(C(F)(F)F)c2)CC1 [Example 45, 1,1,1,3,3,3-Hexafluoropropan-2-yl 1-(3-(4-fluoropiperidin-1-yl)-5-(trifluoromethyl)benzyl)-1,8-diazaspiro[4.5]decane-8-carboxylate]
FAAH % Inh 5 mg/kg (mouse) [1]: # (# is < 25%) | ABHD6 % Inh 5 mg/kg (mouse) [2]: # (# is < 25%)

CC1(C)CC2(CCN(C(=O)OC(C(F)(F)F)C(F)(F)F)CC2)CN1Cc1ccc(Cl)cc1N1CCOCC1 [Example 50, 1,1,1,3,3,3-Hexafluoropropan-2-yl 2-(4-chloro-2-morpholinobenzyl)-3,3-dimethyl-2,8-diazaspiro[4.5]decane-8-carboxylate]
FAAH % Inh 5 mg/kg (mouse) [1]: # (# is < 25%) | ABHD6 % Inh 5 mg/kg (mouse) [2]: # (# is < 25%)

CC1(C)CC2(CCN(C(=O)OC(C(F)(F)F)C(F)(F)F)CC2)CN1Cc1ccc(C(F)(F)F)cc1N1CCOCC1 [Example 51, 1,1,1,3,3,3-Hexafluoropropan-2-yl 3,3-dimethyl-2-(2-morpholino-4-(trifluoromethyl)benzyl)-2,8-diazaspiro[4.5]decane-8-carboxylate]
FAAH % Inh 5 mg/kg (mouse) [1]: # (# is < 25%) | ABHD6 % Inh 5 mg/kg (mouse) [2]: # (# is < 25%)

CC1(C)CC2(CCN(C(=O)OC(C(F)(F)F)C(F)(F)F)CC2)CN1Cc1cccc(Cl)c1N1CCOCC1 [Example 54, 1,1,1,3,3,3-Hexafluoropropan-2-yl 2-(3-chloro-2-morpholinobenzyl)-3,3-dimethyl-2,8-diazaspiro[4.5]decane-8-carboxylate]
FAAH % Inh 5 mg/kg (mouse) [1]: # (# is < 25%) | ABHD6 % Inh 5 mg/kg (mouse) [2]: # (# is < 25%)

O=C(OC(C(F)(F)F)C(F)(F)F)N1CCC2(CCN(Cc3cccc(Cl)c3N3CCC(F)(F)CC3)C2)CC1 [Example 64, 1,1,1,3,3,3-Hexafluoropropan-2-yl 2-(3-chloro-2-(4,4-difluoropiperidin-1-yl)benzyl)-2,8-diazaspiro[4.5]decane-8-carboxylate]
FAAH % Inh 5 mg/kg (mouse) [1]: # (# is < 25%) | ABHD6 % Inh 5 mg/kg (mouse) [2]: # (# is < 25%)

O=C(OC(C(F)(F)F)C(F)(F)F)N1CCC2(CCN(Cc3cccc(Cl)c3N3CCC(F)CC3)C2)CC1 [Example 65, 1,1,1,3,3,3-Hexafluoropropan-2-yl 2-(3-chloro-2-(4-fluoropiperidin-1-yl)benzyl)-2,8-diazaspiro[4.5]decane-8-carboxylate]
FAAH % Inh 5 mg/kg (mouse) [1]: # (# is < 25%)

O=C(OC(C(F)(F)F)C(F)(F)F)N1CCC2(CCCN2Cc2ccc(C(F)(F)F)cc2N2CCCC2)CC1 [Example 66, 1,1,1,3,3,3-Hexafluoropropan-2-yl 1-(2-(pyrrolidin-1-yl)-4-(trifluoromethyl)benzyl)-1,8-diazaspiro[4.5]decane-8-carboxylate]
FAAH % Inh 5 mg/kg (mouse) [1]: # (# is < 25%) | ABHD6 % Inh 5 mg/kg (mouse) [2]: # (# is < 25%)

O=C(OC(C(F)(F)F)C(F)(F)F)N1CCC2(CCN(Cc3ccc(C(F)(F)F)cc3N3CCCC3)C2)CC1 [Example 72, 1,1,1,3,3,3-Hexafluoropropan-2-yl 2-(2-(pyrrolidin-1-yl)-4-(trifluoromethyl)benzyl)-2,8-diazaspiro[4.5]decane-8-carboxylate]
FAAH % Inh 5 mg/kg (mouse) [1]: # (# is < 25%) | ABHD6 % Inh 5 mg/kg (mouse) [2]: # (# is < 25%)

O=C(OC(C(F)(F)F)C(F)(F)F)N1CCC2(CCCN2Cc2ccc(C(F)(F)F)cc2N2CC3CCC(C2)O3)CC1 [Example 73, 1,1,1,3,3,3-Hexafluoropropan-2-yl 1-(2-(8-oxa-3-azabicyclo[3.2.1]octan-3-yl)-4-(trifluoromethyl)benzyl)-1,8-diazaspiro[4.5]decane-8-carboxylate]
FAAH % Inh 5 mg/kg (mouse) [1]: # (# is < 25%) | ABHD6 % Inh 5 mg/kg (mouse) [2]: # (# is < 25%)

O=C(OC(C(F)(F)F)C(F)(F)F)N1CCC2(CCCN2Cc2ccc(Cl)cc2N2CCCCC2)CC1 [Example 74, 1,1,1,3,3,3-Hexafluoropropan-2-yl 1-(4-chloro-2-(piperidin-1-yl)benzyl)-1,8-diazaspiro[4.5]decane-8-carboxylate]
FAAH % Inh 5 mg/kg (mouse) [1]: # (# is < 25%) | ABHD6 % Inh 5 mg/kg (mouse) [2]: # (# is < 25%)

O=C(OC(C(F)(F)F)C(F)(F)F)N1CCC2(CCCN2Cc2ccc(C(F)(F)F)cc2N2CCCCC2)CC1 [Example 78, 1,1,1,3,3,3-Hexafluoropropan-2-yl 1-(2-(piperidin-1-yl)-4-(trifluoromethyl)benzyl)-1,8-diazaspiro[4.5]decane-8-carboxylate]
FAAH % Inh 5 mg/kg (mouse) [1]: # (# is < 25%) | ABHD6 % Inh 5 mg/kg (mouse) [2]: # (# is < 25%)

CCN1CCN(c2cc(C(F)(F)F)ccc2CN2CCCC23CCN(C(=O)OC(C(F)(F)F)C(F)(F)F)CC3)CC1 [Example 87, 1,1,1,3,3,3-Hexafluoropropan-2-yl 1-(2-(4-ethylpiperazin-1-yl)-4-(trifluoromethyl)benzyl)-1,8-diazaspiro[4.5]decane-8-carboxylate]
FAAH % Inh 5 mg/kg (mouse) [1]: # (# is < 25%) | ABHD6 % Inh 5 mg/kg (mouse) [2]: # (# is < 25%)

CC(=O)N1CCN(c2cc(C(F)(F)F)ccc2CN2CCCC23CCN(C(=O)OC(C(F)(F)F)C(F)(F)F)CC3)CC1 [Example 88, 1,1,1,3,3,3-Hexafluoropropan-2-yl 1-(2-(4-acetylpiperazin-1-yl)-4-(trifluoromethyl)benzyl)-1,8-diazaspiro[4.5]decane-8-carboxylate]
FAAH % Inh 5 mg/kg (mouse) [1]: # (# is < 25%) | ABHD6 % Inh 5 mg/kg (mouse) [2]: # (# is < 25%)

O=C(OC(C(F)(F)F)C(F)(F)F)N1CCC2(CCCN2Cc2ccc(C(F)(F)F)cc2N2CCC(F)(F)CC2)CC1 [Example 90, 1,1,1,3,3,3-Hexafluoropropan-2-yl 1-(2-(4,4-difluoropiperidin-1-yl)-4-(trifluoromethyl)benzyl)-1,8-diazaspiro[4.5]decane-8-carboxylate]
FAAH % Inh 5 mg/kg (mouse) [1]: # (# is < 25%) | ABHD6 % Inh 5 mg/kg (mouse) [2]: # (# is < 25%)

CC(=O)NC1CCN(c2cc(Cl)ccc2CN2CCCC23CCN(C(=O)OC(C(F)(F)F)C(F)(F)F)CC3)CC1 [Example 104, 1,1,1,3,3,3-Hexafluoropropan-2-yl 1-(2-(4-acetamidopiperidin-1-yl)-4-chlorobenzyl)-1,8-diazaspiro[4.5]decane-8-carboxylate]
FAAH % Inh 5 mg/kg (mouse) [1]: # (# is < 25%) | ABHD6 % Inh 5 mg/kg (mouse) [2]: # (# is < 25%)

CS(=O)(=O)C1CN(c2cc(C(F)(F)F)ccc2CN2CCCC23CCN(C(=O)OC(C(F)(F)F)C(F)(F)F)CC3)C1 [Example 268]
FAAH % Inh 5 mg/kg (mouse) [1]: # (# is < 25%)
